{"source": "patent US20230112845A1", "about": "“COMPOSITIONS OF BERBERINE URSODE[…] METHODS THEREOF FOR TREATING FATTY LIVER DISEASE, DIABETES AND HYPERLIPIDEMIA” (SHENZHEN HIGHTIDE BIOPHARMACEUTICAL LTD., priority 2020, published 2023)", "key": {"[1]": {"test_system": "subjects with a history of hypercholesterolemia", "assay": "Phase 1b study: safety and tolerability", "format": "in vivo, human", "conditions": "28 days", "method": "A double-blind, randomized, placebo-controlled, dose ranging study was carried out that compared three doses of berberine ursodeoxycholate (BUDCA, a.k.a. HTD1801) to placebo in a cohort of subjects with a history of hypercholesterolemia and serum LDL-c levels above 2.59 mmol/L (>99.9 mg/dL). BUDCA was administered in two divided doses each day for 28 days. The primary endpoints of the study were safety and tolerability of this new compound, as well as its effect in lowering serum lipid and lipoprotein concentrations.\nSubjects underwent an initial assessment and were then randomized to receive ascending doses of BUDCA in three sequential dosing groups: Group I received 500 mg/day of BUDCA or matching placebo in a ratio of 3:1. Group II received 1,000 mg/day of BUDCA or placebo, 3:1 and Group III received 2,000 mg/day BUDCA or placebo, 3:1. Study medication or placebo was given in two equal doses daily for 28 days. […]\nThe groups were enrolled sequentially, but follow-up overlapped (the next cohort could begin during the follow-up period of the prior cohort) (FIG. 1). The decision to move to the next dose level was based upon tolerability and safety findings, as assessed by a Safety Monitoring Committee. […] After having vital signs measured and baseline laboratory tests taken, the subject was given a morning meal and then observed while taking their first dose of BUDCA with a glass of water. […]"}, "[2]": {"test_system": "patients with presumed NASH and type 2 diabetes", "assay": "Phase 2 trial: adverse events, safety and tolerability", "format": "in vivo, human", "conditions": "for Subjects with TEAEs Related to Study Drug: Diarrhea, number (%) / Subjects with TEAEs Related to Study Drug: GERD, number (%) / Subjects with TEAEs Related to Study Drug: Nausea, number (%) / Subjects with TEAEs requiring discontinuation of study drug: Abdominal distension, number (%) / Subjects with TEAEs requiring discontinuation of study drug: Acute myocardial infarction, number (%) / Subjects with TEAEs requiring discontinuation of study drug: Diarrhea, number (%) / Subjects with TEAEs requiring discontinuation of study drug: GERD, number (%) / Subjects with TEAEs requiring discontinuation of study drug: Headache and Facial Rash, number (%) / Subjects with TEAEs requiring discontinuation of study drug: Melena, number (%): placebo 0; for Subjects with TEAEs Related to Study Drug: Headache, number (%) / Subjects with TEAEs requiring discontinuation of study drug: Bladder Cancer, number (%): placebo 1 (3%)", "method": "A prospective, randomized, placebo-controlled trial of two doses of BUDCA administered orally was conducted in a cohort of 100 subjects with fatty liver disease and diabetes. Treatment was for 18 weeks and endpoints measured included reduction in liver fat content measured by […] proton density fat fraction, improvement in glycemic control, changes in liver-associated enzymes, safety and tolerability.\nPatients with diabetes and presumed NASH were randomized into one of three treatment groups, as follows: 1) BUDCA 500 mg BID 2) 1,000 mg BID and 3) matching placebo. Presumed NASH was defined based largely on magnetic resonance imaging derived proton density fat fraction (MRI-PDFF) of 10% or more. Additional inclusion criteria further enriched the study population for having NASH by virtue of requiring corrected T1 (cT1) of more than 830 milliseconds and elevated serum aspartate aminotransferase (AST)≥20 units per liter (6). Subjects had to be overweight or obese with body mass index of 25 kg/m^2 or more.\nDescriptive Statistics were used to summarize continuous data, and frequencies and percentages were used to summarize categorical data. The Safety Set consisted of all subjects who received at least one dose of study treatment. The Modified Efficacy Set is a subset of the Safety Set consisting of subjects that had at least one post-dose MRI-PDFF assessment. […] The primary endpoint was an absolute change from Baseline to Week 18 (or ET) in Liver Fat Content. Primary Endpoint summary measures were provided in both the Efficacy and Modified Efficacy sets, with the Efficacy Set prespecified as the primary analysis set. All other endpoints were prespecified to use the Modified Efficacy Set. Comparisons between active treatment groups relative to placebo were tested using Analysis of Covariance (ANCOVA) with treatment group as a fixed effect and baseline value of the parameters of interest as covariates. ANCOVA based LS Means and raw means have been reported. For statistical analysis of laboratory parameters (i.e. P-values), multiple imputation was used to take missing data into account. A two-sided alpha level of 0.05 without adjustment for multiple tests was used to indicate statistical significance. Analyses were performed using SAS System version 9.4."}}, "note": "“Also recorded” adds a separate entry of the source."}
{"smiles": "COc1ccc2cc3[n+](cc2c1OC)CCc1cc2c(cc1-3)OCO2.C[C@H](CCC(=O)[O-])[C@H]1CC[C@H]2[C@@H]3[C@@H](O)C[C@@H]4C[C@H](O)CC[C@]4(C)[C@H]3CC[C@]12C", "note": "[BUDCA, berberine ursodeoxycholate]", "values": [{"measurement": "frequency of treatment-related adverse events", "setting": "[1]; active drug, all doses, placebo 66%", "value": 67, "unit": "%"}, {"measurement": "tolerability", "setting": "[1]; up to 2,000 mg per day", "value": "generally well tolerated"}, {"measurement": "tolerability", "setting": "[2]; 500 mg BID and 1,000 mg BID, 18 weeks", "value": "generally well tolerated; also recorded: relatively well tolerated"}, {"measurement": "Subjects with TEAEs Related to Study Drug: Diarrhea, number (%)", "setting": "[2]; 500 mg BID, N = 33", "value": "4 (12%)"}, {"measurement": "Subjects with TEAEs Related to Study Drug: GERD, number (%)", "setting": "[2]; 500 mg BID, N = 33", "value": "2 (6%)"}, {"measurement": "Subjects with TEAEs Related to Study Drug: Nausea, number (%)", "setting": "[2]; 500 mg BID, N = 33", "value": "1 (3%)"}, {"measurement": "Subjects with TEAEs requiring discontinuation of study drug: Abdominal distension, number (%)", "setting": "[2]; 500 mg BID, N = 33", "value": 0}, {"measurement": "Subjects with TEAEs requiring discontinuation of study drug: Acute myocardial infarction, number (%)", "setting": "[2]; 500 mg BID, N = 33", "value": 0}, {"measurement": "Subjects with TEAEs requiring discontinuation of study drug: Diarrhea, number (%)", "setting": "[2]; 500 mg BID, N = 33", "value": 0}, {"measurement": "Subjects with TEAEs requiring discontinuation of study drug: GERD, number (%)", "setting": "[2]; 500 mg BID, N = 33", "value": "1 (3%)"}, {"measurement": "Subjects with TEAEs requiring discontinuation of study drug: Headache and Facial Rash, number (%)", "setting": "[2]; 500 mg BID, N = 33", "value": 0}, {"measurement": "Subjects with TEAEs requiring discontinuation of study drug: Melena, number (%)", "setting": "[2]; 500 mg BID, N = 33", "value": 0}, {"measurement": "Subjects with TEAEs Related to Study Drug: Headache, number (%)", "setting": "[2]; 500 mg BID, N = 33", "value": "2 (6%)"}, {"measurement": "Subjects with TEAEs requiring discontinuation of study drug: Bladder Cancer, number (%)", "setting": "[2]; 500 mg BID, N = 33", "value": 0}, {"measurement": "Subjects with TEAEs Related to Study Drug: Diarrhea, number (%)", "setting": "[2]; 1,000 mg BID, N = 34", "value": "9 (26%)"}, {"measurement": "Subjects with TEAEs Related to Study Drug: GERD, number (%)", "setting": "[2]; 1,000 mg BID, N = 34", "value": 0}, {"measurement": "Subjects with TEAEs Related to Study Drug: Nausea, number (%)", "setting": "[2]; 1,000 mg BID, N = 34", "value": "5 (15%)"}, {"measurement": "Subjects with TEAEs requiring discontinuation of study drug: Abdominal distension, number (%)", "setting": "[2]; 1,000 mg BID, N = 34", "value": "1 (3%)"}, {"measurement": "Subjects with TEAEs requiring discontinuation of study drug: Acute myocardial infarction, number (%)", "setting": "[2]; 1,000 mg BID, N = 34", "value": "1 (3%)"}, {"measurement": "Subjects with TEAEs requiring discontinuation of study drug: Diarrhea, number (%)", "setting": "[2]; 1,000 mg BID, N = 34", "value": "2 (6%)"}, {"measurement": "Subjects with TEAEs requiring discontinuation of study drug: GERD, number (%)", "setting": "[2]; 1,000 mg BID, N = 34", "value": "1 (3%)"}, {"measurement": "Subjects with TEAEs requiring discontinuation of study drug: Headache and Facial Rash, number (%)", "setting": "[2]; 1,000 mg BID, N = 34", "value": "2 (6%)"}, {"measurement": "Subjects with TEAEs requiring discontinuation of study drug: Melena, number (%)", "setting": "[2]; 1,000 mg BID, N = 34", "value": "1 (3%)"}, {"measurement": "Subjects with TEAEs Related to Study Drug: Headache, number (%)", "setting": "[2]; 1,000 mg BID, N = 34", "value": "1 (3%)"}, {"measurement": "Subjects with TEAEs requiring discontinuation of study drug: Bladder Cancer, number (%)", "setting": "[2]; 1,000 mg BID, N = 34", "value": 0}, {"measurement": "serious adverse event in the high dose group, relation to study drug", "setting": "[2]; 1,000 mg BID, one serious adverse event", "value": "not related to the study drug"}]}
